In patent publication US20100278837A1, “Compositions And Methods For Reducing Cancer And Inflammation” (The Regents of the University of California, priority 2009, published 2010):
Like-named read-outs stand apart in the source and are kept apart here.

Tests used:
[1] = system: CD11b+ myeloid cell adhesion to VCAM-1; assay: Chemoattractant-stimulated CD11b+ myeloid cell adhesion to VCAM-1 / endothelial cells (Example 9 adhesion assay); format: cell-based, mouse; conditions: Mus musculus, Endothelial cell, read-out: IC50, CD11b+ cell adhesion to VCAM-1
Method: 1×10^5 calcein-AM labelled human CD11b+ cells isolated from buffy coats from the San Diego Blood Bank or murine CD11b+ cells isolated from naïve (non-tumour bearing) or tumour-bearing mice were incubated on HUVEC monolayers or on plastic plates coated with 5 μg/ml recombinant soluble VCAM-1 or ICAM-1 (R&D Systems) for 30 minutes at 37° C. with humidity in the presence of LLC Tumour Conditioned Medium (TCM) or DMEM containing 200 ng/ml SDF1α, IL1β, IL6, TNFα or VEGF-A (R&D Systems). (SDF-1α and IL-1β were initially titrated to determine the minimum dose required to achieve near maximal stimulation of adhesion). TCM was prepared by incubating LLC cells in serum-free media for 18 h and filtering through 0.22 μm filters. After washing three times with warmed medium, adherent cells were quantified using a plate fluorimeter (GeniosPro, TECAN).
In some adhesion assays, cells were also incubated in 25 μg/ml function-blocking anti-integrin α4β1 (rat anti-murine, PS2 or mouse anti-human, HP2/1, gifts from Biogen-Idec), rat-anti-αM (anti-CD11b, M1/70) and isotype control antibodies (rat IgG2κ or mouse IgG1) or with 0.1 nM-10 μM doses of the small molecule inhibitor of integrin α4, ELN476063 (IC50=10 nM), a gift from Elan^14.
Additionally, labelled cells were incubated with HUVEC and rsVCAM coated plates in the presence of […] or SDF-1α and 1-10 μM inhibitors: pan-PI3 kinase inhibitors ([…], wortmannin), PI3-kinase α inhibitors (PI3K75, PIK2alpha, PI103), PI3-kinase β inhibitor (TGX221), PI3-kinase γ inhibitors (TG100-115, AS605240, AS604850), inert control, PLC inhibitor (U73122), geranylgeranyltransferase (Rap1-selective) inhibitors (GGTI-2147 and GGTI-298) or farnesyltransferase (Ras-selective) inhibitor (FTI-277), Akt inhibitors (Inhibitor X and peptide 18), mTOR inhibitor (rapamycin), ROCK inhibitor (Y27632), MEK inhibitor (PD98059), p38 inhibitor (SB202190), tyrosine kinase inhibitor (genestein) and PKA inhibitors (H89, KT5720). LY294002, wortmannin, genestein, U73122, GGTI-2147, GGTI-298, FTI-277, Y27632, PD98059, SB202190, H89 and KT5720 were from Calbiochem. PIK2alpha, PI103, AS605240, AS604850 and TGX221 were from Echelon. TG100-115 was prepared as described^25-26. To titrate the effect of various signalling protein inhibitors on myeloid cell adhesion stimulated by IL-1β or SDF-1α, cells were incubated in 1 nm to 100 μM PI3-kinase inhibitors TG00020 (a pan-PI3-kinase inhibitor), PI3-kinase α inhibitor (PI3Kalpha2) PI3-kinase β inhibitor (TGX221), PI3-kinase γ inhibitors (TG100-115, AS605240), an inert chemically matched control, farnesyltrasnferase inhibitors and geranylgeranyltransferase inhibitors. IC50s for GGTI and FTI were 1 μM. […] Adherent GFP+ cells were automatically quantified using MetaMorph software (Molecular Devices Software).

[2] = Pharmacokinetic analysis of TG100-115 in serum; format: in vivo, Balb/c mice; conditions: mouse
Method: (§1) Pharmacokinetic analysis of a 5 mg/kg bolus dose TG100-115 in Balb-c mice was accomplish by evaluating TG100-115 levels in serum at 5, 15, 30, 60 minute intervals as was previously performed for rats^25. In vivo activity assay of a 5 mg/kg bolus dose TG100-115 in Balb-c mice was accomplish by evaluating pAkt/Akt levels in peripheral blood cells in response to SDF-1α stimulation at 0.25, 0.5, 1, 2, 4, 6 and 12 hour intervals

PI3kinase = assay: In vivo PI3kinase activity assay (pAkt/Akt in peripheral blood mononuclear cells after i.v. dosing); parameters: species or system mice
Method: as §1
CD11b+ cells from C57BL/6 mice or PI3-kinase γ−/− mice were freshly isolated under serum free-conditions and were incubated for 30 min in serum-free media in the presence or absence of 1 μM TG100-115. CD11b+ cells were then stimulated with 200 ng/ml IL-1β or SDF-1α (R&D Systems) for 1-3 minutes and cells were solubilized with RIPA buffer. Alternatively, mice were injected intravenously with […] TG100-115 or a chemically similar inert control. Mononuclear peripheral blood leukocytes were isolated from 2 mice each at 0.5, 1, 2, 4, 6 and 12 hours after treatment. Cells were treated for 3 minutes with 200 ng/ml SDF and then solubilized with RIPA buffer. Lysates were electrophoresed and Western blotted. Akt phosphorylation was evaluated by immunoblotting with anti-phosphorylated Thr308-Akt specific antibody (C31 E5E, Cell Signalling). Blots were stripped and reprobed with anti-Akt (#9272, Cell Signaling). Films were scanned and quantified by densitometry.

PyMT breast tumours = assay: Spontaneous PyMT breast tumour progression in treated mice; format: in vivo, FVB PyMT+ female mice
Method: Alternatively, 6 week old PyMT+ female mice (with spontaneous breast tumours), were treated by subcutaneous injection with ELN476063 (3 mg/kg body weight), or saline every third day for three weeks (n=10). Tumours were excised, weighed and analyzed from 6 weeks at 9 weeks of age.
PI3-kinase γ inhibitor studies: C57BL/6 mice were subcutaneously implanted on d1 with 5×10^5 LLC or by intradermal injection with 5×10^5 B16 melanoma cells. Mice were treated by i.p. injection with 2.5 mg/kg of PI3-kinase γ inhibitor (TG100-115) or with a chemically similar inert control (n=10) twice daily for fourteen days for a total daily dose of 5 mg/kg. In additional studies, C57BL/6 mice were subcutaneously implanted on d1 with 5×10^5 LLC and were treated by i.p. injection with 2.5 mg/kg, 0.25 mg/kg, or 0.025 mg/kg of PI3-kinase γ inhibitor (TG100-115), with 2.5 mg/kg of AS605240 or with a chemically similar inert control (n=10) twice daily for twenty-one days for a total daily dose of 5 mg/kg. Tumour volumes, weights and blood vessel densities, as well as myeloid cell densities were measured. Alternatively, 6 week old PyMT+ female mice (with spontaneous breast tumours), were treated by i.p. injection with 2.5 mg/kg PI3-kinase γ inhibitor (TG100-115) or inert control twice daily for three weeks (n=10). Tumours were excised, weighed and analyzed after 3 weeks. Alternatively, 6 week old FVB PyMT+ female mice were implanted with an Alzet osmotic pump with a 0.25 μl/h release rate containing 4.6 mg in 200 μl of TG100-115 or chemically similar, inert control (n=10). Mice were sacrificed at 9 weeks of age and tumours were analyzed.
Inguinal mammary glands were fixed in Carnoy's fixative, dehydrated through a graded series of ethanol solutions and defatted in xylene. Following rehydration, the mammary epithelium was stained with carmine stain (Sigma Chemical, St Louis, Mo.) for 30 min. After removing excess stain by washing in water, samples were dehydrated and stored in methyl salicylate (Sigma Chemical, St Louis, Mo.).^31

Compound: Nc1nc(N)c2nc(-c3cccc(O)c3)c(-c3cccc(O)c3)nc2n1 [TG100-115, 3,3′-(2,4-diaminopteridine-6,7-diyl)diphenol]
- IC50 ([1]; IL-1β stimulated): 281 nM
- IC50 ([1]; SDF-1α stimulated): 158 nM
- half-life ([2]; Balb/c, intravenous, 5 mg/kg, read-out: t1/2 in vivo (converted)): 13.2 min
- concentration at 1 h ([2]; iv, single i.v. dose of 5 mg/kg, Balb/c mice): 7.1 ng/mL
- half-life ([2]; iv, single i.v. dose of 5 mg/kg, Balb/c mice, read-out: half-life in mice in vivo (converted)): 13.2 min
- time after dosing for which PI3kinase activity is inhibited (PI3kinase; 5 mg/kg i.v., PBMC stimulated 3 min with SDF-1α): up to 12 hours
- myeloid cell PI3kinase catalytic activity in vivo (PI3kinase; mouse, in vivo): rapidly and sustainably inhibits myeloid cell PI3kinase catalytic activity in vivo
- carcinoma area in mammary gland whole mounts (PyMT breast tumours): 6+/−1.3%
- hyperplasia area in mammary gland whole mounts (PyMT breast tumours): 27+/−5%
- normal tissue area in mammary gland whole mounts (PyMT breast tumours): 67+/−3%
